According to US10375956B2, “Herbicidally active 2-(substituted-phenyl)-cyclopentane-1,3-dione compounds and derivatives thereof” (Syngenta Limited, priority 2013, dated 2019):
Read-outs that look alike come from different tables or passages of the source.

Tests used:
Format in all cases: in vivo
[1] = test system: Triticum aestivum (TRZAW, winter wheat); test: Test 2 glasshouse assay (IF50 formulation, X-77), post-emergence herbicidal activity; details: 360 h, 15 DAA, visual score, read-out: Post-emergence herbicidal activity (percentage phytotoxicity) TRZAW; for plant injury at 250 g/ha: application rate 250 g/ha; for plant injury at 30 g/ha: application rate 30 g/ha
Description: Seeds of a variety of monocotyledonous and dicotyledonous test plants are sown in standard soil in pots. The plants are cultivated for one day (for pre-emergence) or for about 12 days (for post-emergence) under controlled conditions in a glasshouse (warm climate species at 24/18° C., cool climate species at 20/16° C., both at day/night; 16 hours light; 65% humidity).
An “instant formulation”, known as the “IF50”, containing 50 g/liter (i.e. 5% w/v) of the “technical” (i.e. unformulated) active ingredient is prepared by dissolving the active ingredient in a mixture of organic solvents and emulsifier, details of which are provided in the Table below. This IF50 is then mixed with a small, variable amount of acetone to aid dissolution, before addition of a 0.2% v/v aqueous solution of the adjuvant X-77 (which is a mixture of alkyl aryl polyoxyethylene glycols and free fatty acids in isopropanol, CAS Registry number 11097-66-8), as the aqueous diluent, to form an aqueous spray solution which contains a predetermined concentration of the active ingredient (which varies depending on the application rate of the active ingredient to the plants) and 0.2% v/v of the adjuvant X-77. This aqueous spray solution is then sprayed onto the plants, after one day's cultivation (for pre-emergence), or after about 12 days' cultivation (range=10-13 days) (for post-emergence).
The test plants are then grown on, in a glasshouse (greenhouse) under controlled conditions (warm climate species at 24/18° C., cool climate species at 20/16° C., both at day/night; 16 hours light; 65% humidity) and are watered twice daily. 15 days after application of the test herbicide (15DAA) (for post-emergence), and 20 days after application of the test herbicide (20DAA) (for pre-emergence), the test plants are evaluated visually, and an assessed percentage phytotoxicity score is given for each herbicidal application on each plant species (with 100%=total damage to plant; 0%=no damage to plant).
Cool climate crop plants: Triticum aestivum (TRZAW, winter wheat), Brassica napus (BRSNN, rape, also called oilseed rape or rapeseed), Beta vulgaris (BEAVA, sugarbeet). Warm climate crop plants: Glycine max (GLXMA, soybean).

[2] = test system: Alopecurus myosuroides (ALOMY); test: Test 1 glasshouse assay, post-emergence herbicidal activity; details: 312 h, after 13 days, read-out: Percentage phytotoxicity ALOMY
Procedure, shortened: (§1)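 Plants sprayed 8 days after sowing with active ingredient in acetone/water (50:50) containing 0.5% Tween 20, grown in glasshouse at 24/16°C day/night, 14 h light, 65% humidity. Phytotoxicity scored visually after 13 days as percentage damage (100% = total damage; 0% = none).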

[3] = test system: Echinochloa crus-galli (ECHCG); test: as above; details: 312 h, after 13 days, read-out: Percentage phytotoxicity ECHCG
Procedure, shortened: as §1

[4] = test system: Amaranthus retroflexus (AMARE); test: as above; details: 312 h, post-emergence (Example 1B Table 1), after 13 days, read-out: Percentage phytotoxicity AMARE
Procedure, shortened: (§2)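 Plants sprayed post-emergence after 8 days' growth with active ingredient in acetone/water (50:50) plus 0.5% Tween 20; glasshouse at 24/16° C day/night, 14 h light, 65% humidity. Visual percentage phytotoxicity scored 13 days later (100% = total damage, 0% = none).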

[5] = test system: Zea mays (ZEAMX, corn/maize); test: as above; details: 312 h, post-emergence (Example 1B Table 1), after 13 days, read-out: Percentage phytotoxicity ZEAMX
Procedure, shortened: as §2

[6] = test system: Abutilon theophrasti (ABUTH); test: as above; details: 312 h, post-emergence (Example 1B Table 1), after 13 days, read-out: Percentage phytotoxicity ABUTH
Procedure, shortened: as §2

Setaria faberi (SETFA) [7] = test: as above; details: 312 h, post-emergence (Example 1B Table 1), after 13 days, read-out: Percentage phytotoxicity SETFA
Procedure, shortened: as §2

[8] = test system: Amaranthus retroflexus (AMARE); test: Test 1 glasshouse assay, pre-emergence herbicidal activity; details: 312 h, visual evaluation after 13 days, read-out: Percentage phytotoxicity AMARE
Procedure, shortened: (§3)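 Steps: sow seeds in standard soil; after one day in the glasshouse, spray aqueous solution of technical compound (acetone/water 50:50, 0.5% Tween 20); grow on at 24/16° C with 14 h light and twice-daily watering; score phytotoxicity visually at 13 days.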

[9] = test system: Alopecurus myosuroides (ALOMY); test: as above; details: 312 h, visual evaluation after 13 days, read-out: Percentage phytotoxicity ALOMY
Procedure, shortened: as §3

[10] = test system: Abutilon theophrasti (ABUTH); test: as above; details: 312 h, visual evaluation after 13 days, read-out: Percentage phytotoxicity ABUTH
Procedure, shortened: as §3

Setaria faberi (SETFA) [11] = test: as above; details: 312 h, visual evaluation after 13 days, read-out: Percentage phytotoxicity SETFA
Procedure, shortened: as §3

[12] = test system: Echinochloa crus-galli (ECHCG); test: as above; details: 312 h, visual evaluation after 13 days, read-out: Percentage phytotoxicity ECHCG
Procedure, shortened: as §3

[13] = post-emergence (Example 1B Table 1)
[14] = post-emergence (Example 1B Table 2)

C#CCC1CC(=O)C(c2cc(-c3ncc(Cl)cn3)ccc2C)C1=O (stereo not drawn) [Compound A19]
70%: pest or weed control at 30 g/ha [3, 13] | pest or weed control at 30 g/ha (Setaria faberi (SETFA) [7])
90%: pest or weed control at 250 g/ha [3, 13] | pest or weed control at 250 g/ha (Setaria faberi (SETFA) [7])
60%: pest or weed control at 250 g/ha [2, 13] | pest or weed control at 250 g/ha [9] | pest or weed control at 250 g/ha (Setaria faberi (SETFA) [11])
30%: plant injury at 250 g/ha [1] | pest or weed control at 250 g/ha [5] | pest or weed control at 250 g/ha [6]
20%: pest or weed control at 250 g/ha [4]
10%: pest or weed control at 30 g/ha [2, 13]
40%: pest or weed control at 30 g/ha [5] | pest or weed control at 250 g/ha [8] | pest or weed control at 250 g/ha [10]
0%: pest or weed control at 30 g/ha [4] | pest or weed control at 30 g/ha [6]
50%: pest or weed control at 250 g/ha [12]

C#CCC1CC(=O)C(c2c(Cl)cc(-c3ccc(F)c(F)c3)cc2OC)C1=O (stereo not drawn) [Compound A13]
40%: plant injury at 30 g/ha [1]
60%: pest or weed control at 30 g/ha [4]
70%: pest or weed control at 30 g/ha [6]
100%: pest or weed control at 250 g/ha [2, 13] | pest or weed control at 62.5 g/ha [2, 14] | pest or weed control at 250 g/ha [2, 14] | pest or weed control at 30 g/ha [3, 13] | pest or weed control at 250 g/ha [3, 13] | pest or weed control at 62.5 g/ha [3, 14] | pest or weed control at 250 g/ha [3, 14] | pest or weed control at 30 g/ha [5] | pest or weed control at 250 g/ha [5] | pest or weed control at 30 g/ha (Setaria faberi (SETFA) [7]) | pest or weed control at 250 g/ha (Setaria faberi (SETFA) [7]) | pest or weed control at 250 g/ha [8] | pest or weed control at 250 g/ha (Setaria faberi (SETFA) [11]) | pest or weed control at 250 g/ha [12]
80%: plant injury at 125 g/ha ([1]; application rate 125 g/ha) | pest or weed control at 250 g/ha [6] | pest or weed control at 250 g/ha [10]
90%: pest or weed control at 30 g/ha [2, 13] | pest or weed control at 250 g/ha [4] | pest or weed control at 250 g/ha [9]

C#CCC1CC(=O)C(c2cc(-c3ncc(Cl)cc3F)ccc2C)C1=O (stereo not drawn) [Compound A18]
70%: pest or weed control at 250 g/ha [2, 13] | pest or weed control at 250 g/ha (Setaria faberi (SETFA) [11])
40%: pest or weed control at 250 g/ha [8]
30%: plant injury at 250 g/ha [1]
0%: pest or weed control at 30 g/ha [4] | pest or weed control at 30 g/ha [6]
20%: pest or weed control at 250 g/ha [10]
80%: pest or weed control at 250 g/ha [3, 13] | pest or weed control at 250 g/ha [5] | pest or weed control at 250 g/ha (Setaria faberi (SETFA) [7])
10%: pest or weed control at 30 g/ha [2, 13]
60%: pest or weed control at 30 g/ha [3, 13] | pest or weed control at 250 g/ha [4] | pest or weed control at 30 g/ha [5] | pest or weed control at 250 g/ha [6] | pest or weed control at 30 g/ha (Setaria faberi (SETFA) [7]) | pest or weed control at 250 g/ha [9] | pest or weed control at 250 g/ha [12]

C#CCC1CC(=O)C(c2c(Cl)cc(-c3ccc(Cl)cn3)cc2OC)C1=O (stereo not drawn) [Compound A10]
100%: pest or weed control at 250 g/ha [2, 13] | pest or weed control at 62.5 g/ha [2, 14] | pest or weed control at 250 g/ha [2, 14] | pest or weed control at 30 g/ha [3, 13] | pest or weed control at 250 g/ha [3, 13] | pest or weed control at 62.5 g/ha [3, 14] | pest or weed control at 250 g/ha [3, 14] | pest or weed control at 30 g/ha [5] | pest or weed control at 250 g/ha [5] | pest or weed control at 30 g/ha (Setaria faberi (SETFA) [7]) | pest or weed control at 250 g/ha (Setaria faberi (SETFA) [7]) | pest or weed control at 250 g/ha [8] | pest or weed control at 250 g/ha [9] | pest or weed control at 250 g/ha (Setaria faberi (SETFA) [11]) | pest or weed control at 250 g/ha [12]
60%: pest or weed control at 250 g/ha [10]
80%: plant injury at 250 g/ha [1] | pest or weed control at 30 g/ha [4] | pest or weed control at 250 g/ha [4] | pest or weed control at 30 g/ha [6] | pest or weed control at 250 g/ha [6]
90%: pest or weed control at 30 g/ha [2, 13]
70%: plant injury at 30 g/ha [1]

C#CCC1CC(=O)C(c2c(C)cc(-c3ccc(Cl)cn3)cc2C)C1=O (stereo not drawn) [Compound A2]
70%: plant injury at 30 g/ha [1] | pest or weed control at 62.5 g/ha [2, 14] | pest or weed control at 62.5 g/ha ([4]; 62.5 g/ha) | pest or weed control at 250 g/ha [4] | pest or weed control at 62.5 g/ha ([6]; 62.5 g/ha)
90%: plant injury at 250 g/ha [1] | pest or weed control at 62.5 g/ha [2, 13] | pest or weed control at 250 g/ha [2, 13] | pest or weed control at 62.5 g/ha [3, 14] | pest or weed control at 250 g/ha [8] | pest or weed control at 250 g/ha [9]
80%: pest or weed control at 250 g/ha [6]
100%: pest or weed control at 250 g/ha [2, 14] | pest or weed control at 62.5 g/ha [3, 13] | pest or weed control at 250 g/ha [3, 13] | pest or weed control at 250 g/ha [3, 14] | pest or weed control at 62.5 g/ha ([5]; 62.5 g/ha) | pest or weed control at 250 g/ha [5] | pest or weed control at 62.5 g/ha (Setaria faberi (SETFA) [7]; 62.5 g/ha) | pest or weed control at 250 g/ha (Setaria faberi (SETFA) [7]) | pest or weed control at 250 g/ha (Setaria faberi (SETFA) [11]) | pest or weed control at 250 g/ha [12]
50%: pest or weed control at 250 g/ha [10]
